Legend:
Type in all cases: biochemical
JAK2 = JAK2 (Homo sapiens (Human), UniProt O60674); assay: Purified kinase assay (Z'-LYTE), JAK2; settings: Table 1; read-out: JAK2 IC50
Experimental: (§1) JAK and TYK2 tyrosine phosphorylation activity is measured using the Z′-LYTE™ Technology developed by Invitrogen Corporation (Carlsbad, Calif.). For JAK1, JAK2 and JAK3 the Z′-LYTE™ Kinase Assay Kit-Tyr6 Peptide (part number PV4122) was used. For TYK2 the Z′-LYTE™ Kinase Assay Kit-Tyr6 Peptide (part number PV3192) was used. The Z′-LYTE™ biochemical assay employs a fluorescence resonance energy transfer (FRET) coupled-enzyme format and is based on the differential sensitivity of phosphorylated and non-phosphorylated peptides to proteolytic cleavage. The assay uses a synthetic peptide substrate that is labeled with a donor fluorophore (coumarin) and an acceptor fluorophore (fluorescein) that make up a FRET pair. In the primary reaction (the Kinase Reaction), the kinase transfers the γ-phosphate of ATP to a single tyrosine residue on the substrate, while the presence of a kinase inhibitor in the primary reaction suppresses phosphorylation. In the secondary reaction (the Development Reaction), a site-specific protease (the Development Reagent) is added. The development buffer quenches the Kinase Reaction, while the protease recognizes and cleaves non-phosphorylated Z′-LYTE™ peptide substrate. Cleavage disrupts FRET between the donor and acceptor fluorophores on the non-phosphorylated substrate, while uncleaved, phosphorylated substrate maintains FRET.
(§2) To test the ability of candidate molecules to inhibit JAK tyrosine phosphorylation activity, molecules are reconstituted in 100% DMSO and serially diluted 1:10 in polypropylene v-bottom microtiter plates. The candidate molecules are then diluted 1:25 into kinase buffer and 2.5 μl transferred into duplicate wells of a 384 well low volume black microtiter assay plate (Corning, USA). The final DMSO concentration in the assay is 1%. The kinase reaction contains 2.5 μl of a candidate molecule, 5 μl of catalytic domain recombinant Kinase enzyme+Tyr peptide substrate (Invitrogen, CA) and ATP (Invitrogen, CA). The kinase reaction is allowed to proceed for 1 hour at room temperature. The protease reaction is initiated by the addition of Development Reagent (Invitrogen, CA). After 1 hour incubation at room temperature the fluorescence is measured using a FlexStation plate reader (Molecular Devices, Sunnyvale, Calif.). The reader settings used are as follows: Fluorescence mode, endpoint, top read, excitation 400 nm, emission 445 nm and 520 nm, Auto Cutoff 435 nm and 515 nm, PMT sensitivity high, 6 reads per well Inhibition of JAK activity is calculated as the percent phosphorylation of substrate in the presence of inhibitor compared to the percent phosphorylation of substrate in the absence of inhibitor. IC50's were derived using Xlfit 4.3 (IDBS, UK), 4 parameter logistic model 205: Y=(A+((B−A)/(1+((C/x)^D)))).

JAK3 = JAK3 (Homo sapiens (Human), UniProt P52333); assay: Purified kinase assay (Z'-LYTE), JAK3; settings: Table 1; read-out: JAK3 IC50
JAK3, sequence (P52333 822-1111): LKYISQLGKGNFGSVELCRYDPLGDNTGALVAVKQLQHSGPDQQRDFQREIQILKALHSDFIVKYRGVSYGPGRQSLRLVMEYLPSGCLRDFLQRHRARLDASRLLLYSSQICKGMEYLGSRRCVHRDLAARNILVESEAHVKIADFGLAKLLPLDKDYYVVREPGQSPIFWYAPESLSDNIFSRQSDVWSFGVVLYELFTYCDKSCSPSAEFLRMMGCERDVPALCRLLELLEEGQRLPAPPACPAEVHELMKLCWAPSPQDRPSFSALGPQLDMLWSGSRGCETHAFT
Experimental: as §1, §2

TYK2 = TYK2 (Homo sapiens (Human), UniProt P29597); assay: Purified kinase assay (Z'-LYTE), TYK2; settings: Table 1; read-out: Tyk2 IC50
TYK2, sequence (P29597 897-1176): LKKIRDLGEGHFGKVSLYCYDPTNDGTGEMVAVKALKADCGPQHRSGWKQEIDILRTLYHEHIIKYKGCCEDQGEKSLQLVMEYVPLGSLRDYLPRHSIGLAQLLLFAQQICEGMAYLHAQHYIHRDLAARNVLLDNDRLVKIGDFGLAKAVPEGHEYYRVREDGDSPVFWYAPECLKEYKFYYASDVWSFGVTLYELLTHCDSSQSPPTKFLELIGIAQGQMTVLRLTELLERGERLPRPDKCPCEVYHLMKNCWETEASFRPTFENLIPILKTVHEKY
Experimental: as §1, §2

JAK1 = JAK1 (Homo sapiens (Human), UniProt P23458); assay: Purified kinase assay (Z'-LYTE), JAK1; settings: Table 1; read-out: JAK1 IC50
JAK1, sequence (P23458 875-1153): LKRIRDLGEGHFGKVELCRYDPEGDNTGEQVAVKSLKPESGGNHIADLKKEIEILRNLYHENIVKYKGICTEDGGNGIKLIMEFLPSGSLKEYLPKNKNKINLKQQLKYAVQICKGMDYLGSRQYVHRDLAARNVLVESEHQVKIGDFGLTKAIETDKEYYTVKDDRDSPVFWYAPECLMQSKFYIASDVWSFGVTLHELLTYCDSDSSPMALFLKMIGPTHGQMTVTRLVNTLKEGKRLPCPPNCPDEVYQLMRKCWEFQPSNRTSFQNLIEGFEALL
Experimental: as §1, §2

JAK2, sequence (O60674 849-1124): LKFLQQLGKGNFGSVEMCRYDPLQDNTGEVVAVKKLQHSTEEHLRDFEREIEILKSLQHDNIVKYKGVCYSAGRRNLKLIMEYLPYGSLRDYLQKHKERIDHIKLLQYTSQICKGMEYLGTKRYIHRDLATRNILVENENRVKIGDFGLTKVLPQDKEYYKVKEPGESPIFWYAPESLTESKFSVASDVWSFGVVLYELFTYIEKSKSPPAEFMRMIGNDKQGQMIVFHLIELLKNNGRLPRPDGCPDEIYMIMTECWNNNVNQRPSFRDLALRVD

| SMILES | IC50 (JAK2) [nM] | IC50 (JAK3) [nM] | IC50 (TYK2) [nM] | IC50 (JAK1) [nM] |
| --- | --- | --- | --- | --- |
| CC(=O)N1CCN(c2ccc(Nc3cc(NCc4ccccc4)c(C(N)=O)nn3)cc2)CC1 [Compound 5, 6-((4-(4-acetylpiperazin-1-yl)phenyl)amino)-4-(benzylamino)-pyridazine-3-carboxamide] | 100 to 1000 | 10 to 100 | 100 to 1000 | > 1000 |
| CC(=O)N1CCN(c2ccc(Nc3cc(NC4(c5ccccc5)CC4)c(C(N)=O)nn3)cc2)CC1 [Compound 57] | > 1000 | 10 to 100 | > 1000 | > 1000 |
| CCC(=O)N1CCN(c2ccc(Nc3cc(NCc4ccccc4F)c(C(N)=O)nn3)cc2)CC1 [Compound 29] | 100 to 1000 | 10 to 100 | 100 to 1000 | > 1000 |
| Cc1cc(Nc2cc(NCc3cccc(F)c3)c(C(N)=O)nn2)ccc1C(=O)N1CCCC1 [Compound 61] | 10 to 100 | 1 to 10 | 100 to 1000 | > 1000 |
| CC(=O)N1CCN(c2ccc(Nc3cc(NC(C)C)c(C(N)=O)nn3)cc2)CC1 [Compound 9] | > 1000 | > 1000 |  | > 1000 |
| CC(=O)N1CCN(c2ccc(Nc3cc(NC4CCCC4)c(C(N)=O)nn3)cc2)CC1 [Compound 10] | 100 to 1000 | 100 to 1000 |  | 100 to 1000 |
| CN(C)C(=O)Cn1cc(Nc2cc(NCc3cccc4ccsc34)c(C(N)=O)nn2)cn1 [Compound 131] | 100 to 1000 | 10 to 100 |  | 100 to 1000 |
| NC(=O)c1nnc(Nc2ccc(N3CCNCC3)cc2)cc1NCc1cccs1 [Compound 22] | > 1000 | 10 to 100 |  | > 1000 |
| CC(=O)N1CCN(c2ccc(Nc3cc(NCc4cc(-c5cccnc5)ccc4F)c(C(N)=O)nn3)cc2)CC1 [Compound 104] | 100 to 1000 | 10 to 100 |  | > 1000 |
| CN(c1ccc(Nc2cc(NCc3cccc(F)c3)c(C(N)=O)nn2)cc1)S(C)(=O)=O [Compound 102] | 100 to 1000 | 10 to 100 |  | > 1000 |
| CC(=O)N1CCN(c2ccc(Nc3cc(NCC4CCC4)c(C(N)=O)nn3)cc2)CC1 [Compound 16] | 100 to 1000 | 10 to 100 |  | > 1000 |
| CC(=O)N1CCN(c2ccc(Nc3cc(NCc4cccc(-c5ccncc5)c4)c(C(N)=O)nn3)cc2)CC1 [Compound 69] | > 1000 | 10 to 100 |  | > 1000 |
| CCC(=O)N1CCN(c2ccc(Nc3cc(NCc4cccc(F)c4)c(C(N)=O)nn3)cc2)CC1 [Compound 30] | 100 to 1000 | 10 to 100 |  | > 1000 |
| CCn1cc(Nc2cc(NCc3cccc(F)c3F)c(C(N)=O)nn2)cn1 [Compound 120] | 100 to 1000 | 10 to 100 |  | > 1000 |
| NC(=O)c1nnc(Nc2ccc(C(=O)N3CCCC3)c(Cl)c2)cc1NCc1cccc(F)c1 [Compound 55] | 100 to 1000 | 10 to 100 |  | > 1000 |
| CCC(=O)N1CCC(Cn2cc(Nc3cc(NCc4cccc(F)c4)c(C(N)=O)nn3)cn2)CC1 [Compound 130] | 100 to 1000 | 10 to 100 |  | > 1000 |
| NC(=O)c1nnc(Nc2cccc(CN3CCOCC3)c2)cc1NCc1cccc(F)c1 [Compound 48] | 100 to 1000 | 10 to 100 |  | > 1000 |
| CC(=O)N1CCC(Cn2cc(Nc3cc(NCc4cccc(F)c4)c(C(N)=O)nn3)cn2)CC1 [Compound 127] | 100 to 1000 | 10 to 100 |  | > 1000 |
| NC(=O)c1nnc(Nc2ccc(N3CCOCC3)cc2)cc1NCc1cccc(F)c1 [Compound 35] | 100 to 1000 | 10 to 100 |  | > 1000 |
| CC(C)(c1ccc(Nc2cc(NCc3cccc(F)c3)c(C(N)=O)nn2)cc1)S(C)(=O)=O [Compound 95] | 100 to 1000 | 10 to 100 |  | > 1000 |
| NC(=O)c1nnc(Nc2cnn(CC3CCOCC3)c2)cc1NCc1cccc2ccsc12 [Compound 121] | 10 to 100 | 1 to 10 |  | 100 to 1000 |
| CC(=O)N1CCN(c2ccc(Nc3cc(N[C@H](C)C(C)C)c(C(N)=O)nn3)cc2)CC1 [Compound 75] | 10 to 100 | 10 to 100 |  | 100 to 1000 |
